Experiments:
[1] = Pharmacokinetic test in the body of beagle (blood concentration of Entecavir after i.m. injection of prodrug suspension); type: in vivo
Protocol: Three conventional male beagles were used in the test, and they were forbidden to eat for 12 hours before administering drugs, and drank water freely meanwhile. Entecavir-5′-docosanoate (prepared in Example 4), Entecavir-5′-ursodesoxycholate (prepared in Example 5) and entecavir-5′-stearoylamidobutanoate (prepared in Example 19) were used to prepare a suspension, and were intramuscularly injected in a dosage of 0.508 mg/kg, 0.552 mg/kg, and 0.533 mg/kg respectively.
Treatment of blood plasma sample: 100 μL of blood plasma sample was added to 20 μL of methanol-water (V:V, 1:1) and 20 μL of interior label (2 μg/mL apigenin), and mixed through vortex. 200 μL of methanol was added and mixed through vortex, followed by being centrifuged under a centrifugal force of 14,000 g for 30 minutes. 10 μL of supernate was collected for analysis. The results are shown in Table 1, Table 2, and Table 3, as well as FIG. 1, FIG. 2 and FIG. 3.

[2] = cited from earlier work

## C=C1[C@H](COC(=O)CCCNC(=O)CCCCCCCCCCCCCCCCC)[C@@H](O)C[C@@H]1n1cnc2c(=O)[nH]c(N)nc21 [Entecavir-5′-stearoylamidobutanoate]
[1]; dog, in vivo
  Release of injectable suspension after intramuscular injection: released sustainably and steady

## C=C1[C@H](COC(=O)CC[C@@H](C)[C@H]2CC[C@H]3[C@@H]4[C@@H](O)C[C@@H]5C[C@H](O)CC[C@]5(C)[C@H]4CC[C@]23C)[C@@H](O)C[C@@H]1n1cnc2c(=O)[nH]c(N)nc21 [Entecavir-5′-ursodesoxycholate]
[1]; beagle, intramuscularly injected suspension
  Release of injectable suspension after intramuscular injection: released sustainably and steady

## Entecavir-5′-docosanoate
[1]; dog, in vivo
  Release of injectable suspension after intramuscular injection: released sustainably and steady

## C=C1[C@H](CO)[C@@H](O)C[C@@H]1n1cnc2c(=O)[nH]c(N)nc21 [Entecavir]
[2]
  Cmax decrease when administered with food: 44-46%
  Decrease of area under the curve (AUC) of the drug-time curve when administered with food: 18-20%

Reference: patent US11292811B2, “Long-acting prodrugs of entecavir, preparing methods and uses thereof” (priority 2017, dated 2022)
